{"source": "patent US20070149576A1", "about": "“Means for protecting against technical materials” (priority 2003, published 2007)", "key": {"[1]": {"system": "Reticulitermes santonensis (termite)", "experiment": "EN 117 determination of the activity threshold against Reticulitermes santonensis (laboratory test)", "type": "in vivo", "details": "for activity threshold against termites, EN 117 (with EN 84): after EN 84 leaching stress"}, "[2]": {"system": "Hylotrupes bajulus (house longhorn beetle)", "experiment": "EN 46 determination of the prophylactic effect on egg larvae of Hylotrupes bajulus (laboratory test)", "type": "in vivo", "details": "for activity threshold against wood-destroying beetles, EN 46 (with EN 84): after EN 84 leaching stress"}}, "data": [{"smiles": "CC1(C)C(C=C(Cl)Cl)C1C(=O)OC(C#N)c1ccc(F)c(Oc2ccccc2)c1", "note": "(stereo not shown) [cyfluthrin]", "values": [{"measurement": "activity threshold against termites, EN 117 (with EN 84)", "setting": "[1]", "value": "10-20 g/m^3"}, {"measurement": "activity threshold against wood-destroying beetles, EN 46 (with EN 84)", "setting": "[2]", "value": "<0.006", "unit": "g/m^2"}, {"measurement": "activity threshold against wood-destroying beetles, EN 46 (without stress)", "setting": "[2]", "value": "<0.006", "unit": "g/m^2"}]}, {"smiles": "CCOC(=O)NCCOc1ccc(Oc2ccccc2)cc1", "note": "[fenoxycarb]", "values": [{"measurement": "activity threshold against termites, EN 117 (with EN 84)", "setting": "[1]", "value": "ineffective"}, {"measurement": "activity threshold against termites, EN 117 (without stress)", "setting": "[1]; without stress", "value": "ineffective"}, {"measurement": "activity threshold against wood-destroying beetles, EN 46 (with EN 84)", "setting": "[2]", "value": 0.050, "unit": "g/m^2"}, {"measurement": "activity threshold against wood-destroying beetles, EN 46 (without stress)", "setting": "[2]", "value": 0.005, "unit": "g/m^2"}]}]}
